Publication PMC6467542 (Bioorganic & Medicinal Chemistry, 2019)
Converted amounts (≈) assume the structure as drawn.

Legend:
[1] = tested on: M. tb (strain H37Rv); assay: MIC90 against replicating M.tb (MABA); assay type: cell-based, Mycobacterium tuberculosis; conditions: aerobic (replicating) conditions, 90% inhibition of growth; for MIC90: Mycobacterium tuberculosis
[2] = tested on: M. tb (strain H37Rv); assay: MIC90 against non-replicating M.tb (LORA); assay type: cell-based, Mycobacterium tuberculosis; conditions: for MIC90: Mycobacterium tuberculosis, H37RV, read-out: MIC90 LORA
Description: In these assays, 1 is a potent inhibitor, with MICs of 0.08 and 0.12 µg/mL, respectively. Replacement of the naphthalene C-unit of 1 with various pyridyls produced analogues of considerably lower lipophilicity, with clogP values ranging from 6.89 down to 2.98.

[3] = in vitro; conditions: mouse, microsomes
[4] = in vitro; conditions: human, microsomes
[5] = biological target: hERG potassium channel (Homo sapiens, UniProt Q12809); assay: Inhibition of hERG potassium current (patch clamp electrophysiology)
Chain of hERG potassium channel (Q12809 whole entry): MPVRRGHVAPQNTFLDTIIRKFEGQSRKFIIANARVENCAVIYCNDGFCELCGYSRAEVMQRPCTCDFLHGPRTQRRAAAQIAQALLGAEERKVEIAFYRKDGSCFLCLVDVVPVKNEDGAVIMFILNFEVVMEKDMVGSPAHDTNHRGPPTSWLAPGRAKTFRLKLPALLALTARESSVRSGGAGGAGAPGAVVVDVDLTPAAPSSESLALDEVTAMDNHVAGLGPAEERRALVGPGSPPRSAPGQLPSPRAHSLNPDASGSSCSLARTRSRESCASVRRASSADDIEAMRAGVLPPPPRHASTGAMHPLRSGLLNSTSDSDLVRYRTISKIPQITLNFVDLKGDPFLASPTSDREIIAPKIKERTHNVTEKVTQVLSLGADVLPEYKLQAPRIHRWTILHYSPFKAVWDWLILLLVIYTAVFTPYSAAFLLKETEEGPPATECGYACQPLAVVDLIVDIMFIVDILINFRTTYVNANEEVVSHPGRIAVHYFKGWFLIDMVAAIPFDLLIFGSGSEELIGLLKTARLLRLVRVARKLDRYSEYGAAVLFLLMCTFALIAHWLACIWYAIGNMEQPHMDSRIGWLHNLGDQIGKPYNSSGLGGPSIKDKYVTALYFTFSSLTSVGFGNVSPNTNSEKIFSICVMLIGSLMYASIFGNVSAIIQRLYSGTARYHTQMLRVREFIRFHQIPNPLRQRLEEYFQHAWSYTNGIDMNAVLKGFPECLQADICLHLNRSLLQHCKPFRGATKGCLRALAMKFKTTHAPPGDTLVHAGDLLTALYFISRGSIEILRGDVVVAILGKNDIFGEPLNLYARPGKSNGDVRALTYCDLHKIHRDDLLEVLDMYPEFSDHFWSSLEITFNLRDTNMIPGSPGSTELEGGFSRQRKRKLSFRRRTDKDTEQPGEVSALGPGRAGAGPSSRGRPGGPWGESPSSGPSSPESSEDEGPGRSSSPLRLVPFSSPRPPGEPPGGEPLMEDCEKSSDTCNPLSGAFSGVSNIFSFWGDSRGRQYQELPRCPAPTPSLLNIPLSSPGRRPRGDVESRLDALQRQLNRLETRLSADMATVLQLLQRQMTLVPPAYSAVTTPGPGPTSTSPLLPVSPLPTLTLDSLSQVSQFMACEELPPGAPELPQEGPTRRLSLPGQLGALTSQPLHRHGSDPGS

In the case of “1-(7-bromo-3-methoxynaphthalen-2-yl)-1-(2,3-dimethoxyphenyl)-4-(dimethylamino)-2-(2,6-dimethylpyridin-4-yl)butan-2-ol [Compound 56]”, the “MIC90 MABA” value [1] is reported as 0.04 µg/mL and the “MIC90 LORA” value ([2]; M.tb H37Rv, non-replicating conditions, 90% inhibition of growth) is reported as 0.07 µg/mL.
COc1cccc(C(c2cc3cc(Br)ccc3nc2OC)C(O)(CCN(C)C)c2cccc(C)n2)c1OC (stereo not shown) [Compound 2] gave an MIC90 [1] of 0.4 µg/mL (≈ 0.689 µM) and an MIC90 [2] of 0.13 µg/mL (≈ 0.224 µM).
For COc1cccc(C(c2cc3cc(C#N)ccc3nc2OC)C(O)(CCN(C)C)c2cccc(C)n2)c1OC (stereo not shown) [Compound 3], the MIC90 [1] was 4.1 µg/mL (≈ 7.79 µM) and the MIC90 [2] was 1.9 µg/mL (≈ 3.61 µM).
Work on COc1cccc(C(c2cc3cc(Br)ccc3nc2OC)C(O)(CCN(C)C)c2cccc(C)n2)c1F (stereo not shown) [Compound 4] yielded a microsomal CLint [3] of 39 µL/min/mg, a microsomal CLint [4] of 10 µL/min/mg and an MIC90 [1] of 0.29 µg/mL (≈ 0.51 µM). For the same compound, the MIC90 [2] was 2 µg/mL (≈ 3.52 µM) and the “hERG % inhibition at 3 µM” value ([5]; 3 µM, manual or (less accurate) QPatch assay) was 34%/3.
Work on COc1cccc(C(c2cc3cc(C#N)ccc3nc2OC)C(O)(CCN(C)C)c2cccc(C)n2)c1F (stereo not shown) [Compound 5] yielded an MIC90 [1] of 1.1 µg/mL (≈ 2.14 µM) and an MIC90 [2] of 1.8 µg/mL (≈ 3.5 µM).
For COc1cccc(C(c2cc3cc(Br)ccc3nc2OC)C(O)(CCN(C)C)c2cc(C)ccn2)c1F (stereo not shown) [Compound 6], the MIC90 [1] was 0.6 µg/mL (≈ 1.06 µM) and the MIC90 [2] was 2.1 µg/mL (≈ 3.69 µM).
Compound COc1cccc(C(c2cc3cc(Br)ccc3nc2OC)C(O)(CCN(C)C)c2ncccc2C)c1F (stereo not shown) [Compound 7] has an MIC90 [1] of 0.19 µg/mL (≈ 0.334 µM) and an MIC90 [2] of 0.4 µg/mL (≈ 0.704 µM).
COc1cccc(C(c2cc3cc(C#N)ccc3nc2OC)C(O)(CCN(C)C)c2ncccc2C)c1F (stereo not shown) [Compound 8] gave an MIC90 [1] of 3 µg/mL (≈ 5.83 µM) and an MIC90 [2] of 3.5 µg/mL (≈ 6.8 µM).
Work on COc1cccc(C(c2cc3cc(Br)ccc3nc2OC)C(O)(CCN(C)C)c2cc(C)cc(C)n2)c1OC (stereo not shown) [Compound 9] yielded an MIC90 [1] of 0.28 µg/mL (≈ 0.471 µM) and an MIC90 [2] of 0.3 µg/mL (≈ 0.505 µM).
COc1cccc(C(c2cc3cc(C#N)ccc3nc2OC)C(O)(CCN(C)C)c2cc(C)cc(C)n2)c1OC (stereo not shown) [Compound 10] showed an MIC90 [1] of 0.54 µg/mL (≈ 0.999 µM) and an MIC90 [2] of 0.62 µg/mL (≈ 1.15 µM).
For COc1cccc(C(c2cc3cc(Br)ccc3nc2OC)C(O)(CCN(C)C)c2cc(C)cc(C)n2)c1F (stereo not shown) [Compound 11], the MIC90 [1] was 0.14 µg/mL (≈ 0.24 µM) and the MIC90 [2] was 0.11 µg/mL (≈ 0.189 µM).
COc1cccc(C(c2cc3cc(C#N)ccc3nc2OC)C(O)(CCN(C)C)c2cc(C)cc(C)n2)c1F (stereo not shown) [Compound 12] showed an MIC90 [1] of 2.3 µg/mL (≈ 4.35 µM) and an MIC90 [2] of 2.8 µg/mL (≈ 5.3 µM).
For COc1cccc(C(c2cc3cc(Br)ccc3nc2OC)C(O)(CCN(C)C)c2ncc(C)cc2C)c1F (stereo not shown) [Compound 13], the MIC90 [1] was 0.3 µg/mL (≈ 0.515 µM) and the MIC90 [2] was 0.46 µg/mL (≈ 0.79 µM).
With COc1cccc(C(O)(CCN(C)C)C(c2cccc(C)c2)c2cc3cc(C#N)ccc3nc2OC)n1 (stereo not shown) [Compound 14] the MIC90 [1] was 0.6 µg/mL (≈ 1.21 µM) and the MIC90 [2] was 0.29 µg/mL (≈ 0.584 µM).
COc1cccc(C(O)(CCN(C)C)C(c2cc3cc(C#N)ccc3nc2OC)c2cccc3c2OCO3)n1 (stereo not shown) [Compound 16] showed an MIC90 [1] of 1.2 µg/mL (≈ 2.28 µM).
With COc1ccnc(C(O)(CCN(C)C)C(c2cc3cc(Br)ccc3nc2OC)c2cccc(OC)c2F)c1 (stereo not shown) [Compound 17] the MIC90 [1] was 1.2 µg/mL (≈ 2.05 µM) and the MIC90 [2] was 0.61 µg/mL (≈ 1.04 µM).
With COc1ccnc(C(O)(CCN(C)C)C(c2cc3cc(C#N)ccc3nc2OC)c2cccc(OC)c2F)c1 (stereo not shown) [Compound 18] the MIC90 [1] was 2.3 µg/mL (≈ 4.33 µM) and the MIC90 [2] was 2.2 µg/mL (≈ 4.15 µM).
Work on COc1cccc(C(c2cc3cc(Br)ccc3nc2OC)C(O)(CCN(C)C)c2cccnc2C)c1OC (stereo not shown) [Compound 20] yielded an MIC90 [1] of 0.3 µg/mL (≈ 0.517 µM) and an MIC90 [2] of 0.59 µg/mL (≈ 1.02 µM).
COc1cccc(C(c2cc3cc(C#N)ccc3nc2OC)C(O)(CCN(C)C)c2ccc(C)nc2)c1F (stereo not shown) [Compound 23] showed an MIC90 [1] of 4.7 µg/mL (≈ 9.13 µM) and an MIC90 [2] of over 5 µg/mL.
With COc1cccc(C(c2cc3cc(Br)ccc3nc2OC)C(O)(CCN(C)C)c2ccc(C)nc2)c1OC (stereo not shown) [Compound 24] the MIC90 [1] was 0.6 µg/mL (≈ 1.03 µM) and the MIC90 [2] was 0.51 µg/mL (≈ 0.879 µM).
For COc1cccc(C(c2cc3cc(C#N)ccc3nc2OC)C(O)(CCN(C)C)c2ccc(C)nc2)c1OC (stereo not shown) [Compound 25], the MIC90 [1] was over 5 µg/mL.
For COc1nc2ccc(Br)cc2cc1C(c1cccc(F)c1)C(O)(CCN(C)C)c1cncc(C)c1 (stereo not shown) [Compound 26], the MIC90 [1] was 0.28 µg/mL (≈ 0.52 µM) and the MIC90 [2] was 0.08 µg/mL (≈ 0.149 µM).
Work on COc1nc2ccc(C#N)cc2cc1C(c1cccc(F)c1)C(O)(CCN(C)C)c1cncc(C)c1 (stereo not shown) [Compound 27] yielded a microsomal CLint [3] of 249 µL/min/mg, a microsomal CLint [4] of 122 µL/min/mg and an MIC90 [1] of 1.2 µg/mL (≈ 2.48 µM). The MIC90 [2] was 0.98 µg/mL (≈ 2.02 µM) and the “hERG % inhibition at 1 µM” value ([5]; 1 µM, manual assay) was 42%/1.
COc1cccc(C(c2cc3cc(Br)ccc3nc2OC)C(O)(CCN(C)C)c2cncc(C)c2)c1OC (stereo not shown) [Compound 28] gave an MIC90 [1] of 0.3 µg/mL (≈ 0.517 µM) and an MIC90 [2] of 0.57 µg/mL (≈ 0.982 µM).
With COc1cccc(C(c2cc3cc(C#N)ccc3nc2OC)C(O)(CCN(C)C)c2cncc(C)c2)c1OC (stereo not shown) [Compound 29] the MIC90 [1] was 4.2 µg/mL (≈ 7.98 µM) and the MIC90 [2] was 3.8 µg/mL (≈ 7.22 µM).
Compound COc1cccc(C(c2cc3cc(Br)ccc3nc2OC)C(O)(CCN(C)C)c2cncc(C)c2)c1F (stereo not shown) [Compound 30] has an MIC90 [1] of 0.16 µg/mL (≈ 0.281 µM) and an MIC90 [2] of 0.2 µg/mL (≈ 0.352 µM).
Compound COc1cccc(C(c2cc3cc(C#N)ccc3nc2OC)C(O)(CCN(C)C)c2cncc(C)c2)c1F (stereo not shown) [Compound 31] has an MIC90 [1] of 3.3 µg/mL (≈ 6.41 µM) and an MIC90 [2] of 2.5 µg/mL (≈ 4.86 µM).
With COc1cccc(C(c2cc3cc(Br)ccc3nc2OC)C(O)(CCN(C)C)c2cc(C)cnc2C)c1F (stereo not shown) [Compound 32] the MIC90 [1] was 0.07 µg/mL (≈ 0.12 µM) and the MIC90 [2] was 0.23 µg/mL (≈ 0.395 µM).
For COc1cccc(C(c2cc3cc(Br)ccc3nc2OC)C(O)(CCN(C)C)c2cnc(C)c(C)c2)c1OC (stereo not shown) [Compound 34], the MIC90 [1] was 0.07 µg/mL (≈ 0.118 µM) and the MIC90 [2] was 0.14 µg/mL (≈ 0.235 µM).
COc1cccc(C(c2cc3cc(Br)ccc3nc2OC)C(O)(CCN(C)C)c2cnc(C)c(C)c2)c1F (stereo not shown) [Compound 35] showed an MIC90 [1] of 0.31 µg/mL (≈ 0.532 µM) and an MIC90 [2] of 0.29 µg/mL (≈ 0.498 µM).
In the case of COc1cccc(C(c2cc3cc(C#N)ccc3nc2OC)C(O)(CCN(C)C)c2cnc(C)c(C)c2)c1F (stereo not shown) [Compound 36], the MIC90 [1] is reported as 2.4 µg/mL (≈ 4.54 µM) and the MIC90 [2] is reported as 3.3 µg/mL (≈ 6.24 µM).
For COc1cccc(C(c2cc3cc(Br)ccc3nc2OC)C(O)(CCN(C)C)c2cnc(C)cc2C)c1F (stereo not shown) [Compound 37], the MIC90 [1] was 0.53 µg/mL (≈ 0.91 µM) and the MIC90 [2] was 0.29 µg/mL (≈ 0.498 µM).
COc1nc2ccc(C#N)cc2cc1C(c1cccc2c1OCO2)C(O)(CCN(C)C)c1cccnc1OC (stereo not shown) [Compound 42] gave an MIC90 [1] of 2.1 µg/mL (≈ 3.99 µM).
In the case of COc1ccc(C(O)(CCN(C)C)C(c2cc3cc(Br)ccc3nc2OC)c2cccc(OC)c2OC)cn1 (stereo not shown) [Compound 43], the MIC90 [1] is reported as 0.28 µg/mL (≈ 0.469 µM) and the MIC90 [2] is reported as 0.54 µg/mL (≈ 0.905 µM).
Work on COc1ccc(C(O)(CCN(C)C)C(c2cc3cc(C#N)ccc3nc2OC)c2cccc(OC)c2OC)cn1 (stereo not shown) [Compound 44] yielded an MIC90 [1] of 2.1 µg/mL (≈ 3.87 µM).
Work on COc1ccc(C(O)(CCN(C)C)C(c2cc3cc(Br)ccc3nc2OC)c2cccc(OC)c2F)cn1 (stereo not shown) [Compound 45] yielded an MIC90 [1] of 0.12 µg/mL (≈ 0.205 µM) and an MIC90 [2] of 0.08 µg/mL (≈ 0.137 µM).
COc1cnc(OC)c(C(O)(CCN(C)C)C(c2cc3cc(Br)ccc3nc2OC)c2cccc(OC)c2F)c1 (stereo not shown) [Compound 46] gave a microsomal CLint [3] of 53 µL/min/mg, a microsomal CLint [4] of 7 µL/min/mg and an MIC90 [1] of 0.09 µg/mL (≈ 0.146 µM). For the same compound, the MIC90 [2] was 0.04 µg/mL (≈ 0.0651 µM) and the IC50 ([5]; read-out: hERG IC50, manual patch clamp, 5-concentration dose-response) was 2900 nM.
COc1cc(C(O)(CCN(C)C)C(c2cc3cc(Br)ccc3nc2OC)c2cccc(OC)c2F)cnc1OC (stereo not shown) [Compound 47] showed an MIC90 [1] of 0.07 µg/mL (≈ 0.114 µM) and an MIC90 [2] of 0.11 µg/mL (≈ 0.179 µM).
COc1cccc(C(c2cc3cc(Br)ccc3nc2OC)C(O)(CCN(C)C)c2ccncc2C)c1F (stereo not shown) [Compound 50] showed an MIC90 [1] of 1 µg/mL (≈ 1.76 µM) and an MIC90 [2] of 1.1 µg/mL (≈ 1.93 µM).
Compound COc1cccc(C(c2cc3cc(Br)ccc3nc2OC)C(O)(CCN(C)C)c2ccnc(C)c2)c1F (stereo not shown) [Compound 51] has an MIC90 [1] of 0.47 µg/mL (≈ 0.827 µM) and an MIC90 [2] of 0.58 µg/mL (≈ 1.02 µM).
COc1cccc(C(c2cc3cc(C#N)ccc3nc2OC)C(O)(CCN(C)C)c2ccnc(C)c2)c1F (stereo not shown) [Compound 52] gave an MIC90 [1] of over 5 µg/mL and an MIC90 [2] of 3.8 µg/mL (≈ 7.38 µM).
In the case of COc1nc2ccc(Br)cc2cc1C(c1cccc(C)c1)C(O)(CCN(C)C)c1cc(C)nc(C)c1 (stereo not shown) [Compound 53], the MIC90 [1] is reported as 0.11 µg/mL (≈ 0.201 µM) and the MIC90 [2] is reported as 0.49 µg/mL (≈ 0.893 µM).
COc1cccc(C(c2cc3cc(Br)ccc3nc2OC)C(O)(CCN(C)C)c2cc(C)nc(C)c2)c1F (stereo not shown) [Compound 54] gave an MIC90 [1] of 0.11 µg/mL (≈ 0.189 µM) and an MIC90 [2] of 0.3 µg/mL (≈ 0.515 µM).
